# Read-outs that look alike come from different tables or passages of the source.
# What was measured:
# [1] = four HIV-positive patients treated for toxoplasmosis; cited from earlier work
# glutathione reductase = details: cited from earlier work
# renal cortex = details: cited from earlier work
# [2] = rat, in vivo; cited from earlier work
# [3] = tested on: glomerular epithelial cell; details: rat, in vivo; cited from earlier work
# [4] = rat, in vivo, 65 mg/kg; cited from earlier work
# [5] = treatment 2 to 25 years; cited from earlier work
# [6] = male Wistar rats, daily doses within human therapeutic range; cited from earlier work
# [7] = rabbit, in vivo; cited from earlier work
# [8] = tested on: angiotensin converting enzyme (ACE); details: rats, 20, 25, and 30 days post-treatment; cited from earlier work
# [9] = CMV patients; cited from earlier work
# [10] = in vivo; cited from earlier work
# [11] = rats and mice, varying doses; cited from earlier work
# [12] = rats fed hydralazine, compared to control groups; cited from earlier work
# [13] = rats, cited from earlier work
# [14] = rats, began on day 3; cited from earlier work
# [15] = Clinical chemistry of the dosed rats; type: in vivo; details: rats given the high dosage
# rat hepatocytes = details: cited from earlier work
compound,measurement,setting,value
Nc1ccc(S(=O)(=O)Nc2ncccn2)cc1 [SULFADIAZINE],clinical renal adverse findings,[1],"developed oliguria, abdominal pain, renal failure"
O=C(Cc1cccs1)N[C@@H]1C(=O)N2C(C(=O)[O-])=C(C[n+]3ccccc3)CS[C@H]12 [CEPHALORIDINE],glutathione reductase activity,glutathione reductase,inhibited glutathione reductase
same,reduced glutathione (GSH) in the renal cortex,renal cortex,depleted reduced glutathione (GSH)
"CN(C)c1ncnc2c1ncn2[C@@H]1O[C@H](CO)[C@@H](N)[C@H]1O [PAN, puromycin aminonucleoside]",proteinuria,[2],led to proteinuria
same,glomerular epithelial cell apoptosis,[3],induced glomerular epithelial cell apoptosis
N.N.O=C([O-])C1(C(=O)[O-])CCC1.[Pt+2] [CARBOPLATIN],CGT excretion,[4],increased approximately two-fold
LITHIUMCHLORIDE,patients with nephrogenic diabetes insipidus (NDI),[5],~90%
same,patients with nephrotic proteinuria,[5],Approximately one fourth
same,polyuria,[6],marked polyuria within three weeks
CC1=C2C(=CO[C@H](C)[C@H]2C)C(O)=C(C(=O)O)C1=O [CITRININ],"creatinine clearance, blood urea nitrogen, serum creatinine (renal failure)",[7],decreased creatinine clearance and increased blood urea nitrogen and serum-creatinine levels
COc1cccc2c1C(=O)c1c(O)c3c(c(O)c1C2=O)C[C@@](O)(C(=O)CO)C[C@@H]3O[C@H]1C[C@H](N)[C@H](O)[C@H](C)O1 [ADR],serum ACE levels,[8],serum ACE levels were significantly elevated
Nc1ccn(C[C@@H](CO)OCP(=O)(O)O)c(=O)n1 [CIDOFOVIR],patients with dose-dependent asymptomatic proteinuria,[9],Approximately 40%
same,patients with elevated serum creatinine levels,[9],25%
9-[(2-hydroxyethyl) methyl] guanine [ACYCLOVIR],excretion,[10],most of it is excreted in the urine largely unchanged
NCCC(O)(P(=O)(O)O)P(=O)(O)O [PAMIDRONATE],body weight and creatinine clearance,[11],significant weight loss and a decrease in creatinine clearance
NNc1nncc2ccccc12 [HYDRALAZINE],kidney copper concentrations,[12],kidney copper concentrations were increased
"N.N.[Cl][Pt][Cl] [CISPLATIN, Pt(NH3)2(Cl)2]",BUN,"[13]; day 2, high-dose groups (10-15 mg/kg)",six or seven-fold elevation in BUN
same,BUN,"[13]; day 4, 5 mg/kg group",BUN elevation was noted
same,serum creatinine levels,[14],elevations in serum creatinine levels
O=C(O)c1cc(-c2ccc(F)cc2F)ccc1O [DIFLUNISAL],concentrations of creatinine,[15],increased concentrations of creatinine
same,LDH leakage,"rat hepatocytes; 500 μM, compared to control",increase LDH leakage
same,intracellular ATP concentrations,rat hepatocytes,decreased intracellular ATP concentrations

# Source: US7415358B2, “Molecular toxicology modeling” (Ocimum Biosolutions, Inc., priority 2001, dated 2008)
